# Data taken from patent US20120157395A1, “ANTI-INFLAMMATORY AGENT FOR ORAL APPLICATION, AND ANTI-INFLAMMATORY PEPTIDE FOR ORAL APPLICATION” (priority 2009, published 2012).
# Residues, ends and D or L forms follow the SMILES beside them.
# Assay: Identification of absorbed peptides in plasma (PDA-HPLC, LC-MS/MS)
# Assay type: in vivo
# Conditions: pigs fed Peptide Composition 1 (Example 1), blood collected during dissection; 3 peptide peaks present
# Experimental: First, between 3 and 5 day-old 18 pigs were divided into 3 groups and they were bred for 3 days. Then the groups were designated as test groups (Example 1 and Comparative Example 1) and a control group (Comparative Example 2) and 1.25 g of dextran sulfate per kg of body weight was given as drinking water for 5 days (DSS treatment). Then, 250 mg of Peptide Composition 1 per kg of body weight was fed for 5 days in Example 1, 250 mg of Peptide Composition 2 per kg of body weight was fed for 5 days in Comparative Example 1, and alanine corresponding to the nitrogen content of the peptide was fed in Comparative Example 2. After that, the intestinal tract cells were collected during dissection and cytokines were measured. Comparative Example 2 corresponds to the control. (Dextran sulfate is a substance which induces bowel inflammation. International J. of Colorectal Disease, 15, 144-160 (2000))
# Blood was collected during dissection and plasma was isolated, and then the structural analysis of a peak obtained by PDA-HPLC was carried out by LC-MS/MS to identify an amino acid sequence of the peptides.
smiles,measurement,value
"CC(C)C[C@H](NC(=O)[C@@H](N)Cc1ccccc1)C(=O)N[C@H](C(=O)O)C(C)C [FLV, Phe-Leu-Val] (H-Phe-Leu-Val-OH; N-terminus and C-terminus assumed)",peptide peak present in plasma,largest peak
